Laboratory results published in patent US20260144805A1, “CANNABIDIOL COMPOSITIONS FOR USE IN THE TREATMENT OF NEURODEGENERATIVE AND NEUROLOGICAL DISORDERS” (JAZZ PHARMACEUTICALS RESEARCH UK LIMITED, priority 2022, published 2026).

Experiments:
Format in all cases: in vivo
[1] = tested on: valproic acid-induced autism spectrum disorder (ASD) mouse model; assay: Valproic acid-induced ASD model, social behavior (Example 6, Table P); design: key: +: improvement; Ø: no change; −: not tested; settings: 0.125 mg/kg I.P.
From the text: The main objective of the following study was to assess the effect of the drug substance (DS) of Example 1 in ameliorating autism-like behavior in valproic acid-induced autism spectrum disorder (ASD) mouse model (FIGS. 19A-B).

rat VPA model [2] = assay: Direct social interaction and social play P30 in rat VPA model (Example 5; DS = DS-E)
Procedure: (§1) Time-mated female Wistar rats were administered a single dose of valproic acid (VPA, 600 mg/kg, i.p.) on gestational day 12.5. Male offspring were delivered and confirmation of the VPA induced developmental deficit was rapidly achieved by examination of characteristic “tail kinks” in the juvenile animals. The timeline of experiments is outlined in FIG. 8 and animals were randomly allocated to treatment groups (Table O).
(§2) Control animals were administered sterile saline (0.9% w/v, i.p.) in utero and the vehicle control (ethanol: Kolliphor HS15: saline (1:1:18, v/v/v), i.p.
At postnatal day 30 and following 8 days treatment with the test compounds, animals were evaluated for juvenile play behavior. […] Animals were first allowed to individually explore the arena for 10-minute acclimatization trial (P29) and 24 hours later evaluated for social play (P30). On day of evaluation animals were scored for play activity measured by pinning (latency to, total duration and frequency), mounting (latency to, total duration and frequency) and latency, frequency and duration of social play behavior (following or approaching test partner, sniffing or social grooming). […]
All data was assessed for outliers (ROUT; Prism V9.02) and then normality using D'Agostino and Pearson normality test for n=8, or Shapiro-Wilks test for n<8 or unequal groups. […]

rat VPA model [3] = assay: Marble burying test P58 in rat VPA model (Example 5; DS = DS-E); settings: adult P58, risperidone 0.125 mg/kg
Procedure: as §1, §2
The marble burying test has been employed as an animal model of anxiety and impulsive behavior. […] Over a 10-minute test period animals were allowed to freely explore the apparatus and subsequently removed whereupon marbles covered by at least one half with bedding were considered buried and this number was recorded and was the main outcome measure for this behavior. Video recording of the test period was evaluated for locomotor activity and scored for frequency and duration of digging behavior.
All data was assessed for outliers (ROUT; Prism V9.02) and then normality using D'Agostino and Pearson normality test for n=8, or Shapiro-Wilks test for n<8 or unequal groups. Data that were non-normally distributed were analysed using Kruskal-Wallis followed by planned comparisons with Dunn's correction. Normally distributed data were analysed using one-way ANOVA or two-way ANOVA followed by planned comparisons with Sidak's correction. […] Statistical significance was defined as p<0.05 using Prism 9.0.2 software for analysis.

`Cc1nc2n(c(=O)c1CCN1CCC(c3noc4cc(F)ccc34)CC1)CCCC2` [Risperidone] was tested, and the “Adult active social behavior” value ([1]; control beside DS) was “Ø”, the Juvenile play behavior ([1]; control beside DS) was “Ø” and the “Adult active social behavior” value ([1]; control beside sCBD) was “+”. For the same compound, the Juvenile play behavior ([1]; control beside sCBD) was “+”, the “Adult active social behavior” value ([1]; control beside sCBD-2) was “Ø” and the Juvenile play behavior ([1]; control beside sCBD-2) was “Ø”. For the same compound, the “Social duration and frequency behaviours” value (rat VPA model [2]; juvenile P30, risperidone 0.125 mg/kg) was “no effect”, the “any measure of play or social interaction” value (rat VPA model [2]; juvenile animals, Risperidone 0.125 mg/kg) was “without effect” and the VPA-induced digging behaviour (rat VPA model [3]) was “significantly reduced”. For the same compound, the “number of marbles buried” value (rat VPA model [3]) was “no significant effect” and the “number of marbles buried” value (rat VPA model [3]; listed as risperidone) was “significantly reduced”.
